# What was measured:
# [1] = system: P. aeruginosa Ps296 expressing VIM-2; experiment: Broth microdilution MIC, P. aeruginosa Ps296 VIM-2; type: cell-based; conditions: fixed 4 μg/mL meropenem; CAMHB, 16-20 hours at 37° C.
# How it was run: (§1)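 CAMHB, CLSI broth microdilution; strains pre-grown 3-5 h. Compound 32–0.25 μg/ml (2-fold series) + fixed β-lactam 4 μg/ml overlay. 37° C, 16-20 h; MIC scored by eye.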
# [2] = molecular target: T1, SHV-5 β-lactamase (Class A ESBL) (Klebsiella pneumoniae, UniProt P0A3M1); experiment: β-Lactamase inhibition, SHV-5; type: biochemical
# T1 construct: made in house; host or cells: E. coli BL21(DE3)
# T1 sequence (P0A3M1 22-286): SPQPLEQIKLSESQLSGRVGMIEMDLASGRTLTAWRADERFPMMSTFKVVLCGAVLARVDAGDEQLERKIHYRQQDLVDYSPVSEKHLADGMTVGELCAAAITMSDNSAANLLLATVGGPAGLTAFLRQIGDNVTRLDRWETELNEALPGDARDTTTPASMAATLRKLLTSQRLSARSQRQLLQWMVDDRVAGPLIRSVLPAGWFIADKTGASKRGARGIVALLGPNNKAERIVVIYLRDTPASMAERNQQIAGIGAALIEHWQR
# How it was run: (§2)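 Untagged enzyme from E. coli BL21(DE3), purified by Capto S then Superdex 75; 15 min 37 °C preincubation with inhibitor; KPC-2 read with imipenem at 300 nm, SHV-5 with cefotaxime at 260 nm, OXA-1 with nitrocefin 100 μM final at 486 nm; 10 min kinetic read; IC50 vs uninhibited wells.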
# [3] = system: E. coli ESBL4 expressing CTX-M-15; experiment: Broth microdilution MIC, E. coli ESBL4 CTX-M-15; type: cell-based; conditions: fixed 4 μg/mL ceftazidime; CAMHB, 16-20 hours at 37° C.
# How it was run: as §1
# [4] = molecular target: T2, KPC-2 β-lactamase (Class A carbapenemase) (Klebsiella pneumoniae, UniProt Q9F663); experiment: β-Lactamase inhibition, KPC-2; type: biochemical; conditions: imipenem substrate, 300 nm; 15 min preincubation at 37° C., PBS pH 7.4
# T2 construct: made in house; host or cells: E. coli BL21(DE3)
# T2 sequence (Q9F663 25-293, looked up): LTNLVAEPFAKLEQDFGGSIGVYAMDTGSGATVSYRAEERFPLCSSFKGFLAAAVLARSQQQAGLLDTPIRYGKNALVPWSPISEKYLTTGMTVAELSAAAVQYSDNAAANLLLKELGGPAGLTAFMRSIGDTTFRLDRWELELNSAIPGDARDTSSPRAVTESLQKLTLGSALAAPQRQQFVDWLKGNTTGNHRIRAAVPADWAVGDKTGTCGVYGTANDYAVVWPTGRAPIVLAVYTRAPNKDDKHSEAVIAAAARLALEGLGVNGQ
# How it was run: as §2
# [5] = system: K. pneumoniae A-1797 expressing KPC-2 and VIM-4; experiment: Broth microdilution MIC, K. pneumoniae A-1797 KPC-2/VIM-4; type: cell-based; conditions: fixed 4 μg/mL meropenem; CAMHB, 16-20 hours at 37° C.
# How it was run: as §1
# [6] = molecular target: T3, VIM-2 metallo-β-lactamase (Class B) (Pseudomonas aeruginosa, UniProt Q9K2N0); experiment: β-Lactamase inhibition, VIM-2; type: biochemical; conditions: nitrocefin 100 μM, 486 nm; 15 min preincubation at 37° C., PBS pH 7.4
# T3 construct: made in house; host or cells: E. coli BL21(DE3)
# How it was run: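 Enzyme + inhibitor, 37 °C, 15 min; nitrocefin 100 μM final; A486 read for 10 min. % inhibition vs no-inhibitor wells per concentration; IC50 = concentration halving initial hydrolysis rate.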
# [7] = system: E. cloacae 144200 expressing Class C P99 AmpC; experiment: Broth microdilution MIC, E. cloacae 144200 p99 AmpC; type: cell-based; conditions: fixed 4 μg/mL ceftazidime; CAMHB, 16-20 hours at 37° C.
# How it was run: as §1
# [8] = molecular target: T4, p99 AmpC β-lactamase (Class C) (Enterobacter cloacae, UniProt P05364); experiment: β-Lactamase inhibition, p99 AmpC; type: biochemical
# T4 construct: made in house; host or cells: E. coli BL21(DE3)
# T4 sequence (P05364 21-381): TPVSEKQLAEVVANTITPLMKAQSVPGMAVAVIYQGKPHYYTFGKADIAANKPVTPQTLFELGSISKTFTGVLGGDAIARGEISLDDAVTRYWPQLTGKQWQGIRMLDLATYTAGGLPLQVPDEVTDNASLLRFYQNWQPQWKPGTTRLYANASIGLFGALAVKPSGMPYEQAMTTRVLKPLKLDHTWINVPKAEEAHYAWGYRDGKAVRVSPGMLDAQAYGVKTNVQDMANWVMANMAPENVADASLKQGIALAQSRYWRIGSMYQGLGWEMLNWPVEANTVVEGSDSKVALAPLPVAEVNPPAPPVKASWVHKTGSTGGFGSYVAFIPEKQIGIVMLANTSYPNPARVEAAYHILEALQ
# [9] = system: S. aureus MSSA-7 producing penicillinase PC-1; experiment: Broth microdilution MIC, S. aureus MSSA-7 PC-1; type: cell-based; conditions: fixed 4 μg/mL piperacillin; CAMHB, 16-20 hours at 37° C.
# How it was run: as §1
# [10] = molecular target: T5, OXA-1 β-lactamase (Class D oxacillinase) (Escherichia coli, UniProt P13661); experiment: β-Lactamase inhibition, OXA-1; type: biochemical; conditions: nitrocefin 100 μM, 486 nm; 15 min preincubation at 37° C., PBS pH 7.4
# T5 construct: made in house; host or cells: E. coli BL21(DE3)
# T5 sequence (P13661 26-276): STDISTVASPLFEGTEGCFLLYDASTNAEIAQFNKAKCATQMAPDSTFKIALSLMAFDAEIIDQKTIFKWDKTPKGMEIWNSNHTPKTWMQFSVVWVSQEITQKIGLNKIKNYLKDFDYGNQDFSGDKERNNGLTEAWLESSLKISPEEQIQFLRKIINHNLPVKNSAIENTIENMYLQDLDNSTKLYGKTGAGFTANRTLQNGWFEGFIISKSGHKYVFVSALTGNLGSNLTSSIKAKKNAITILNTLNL
# How it was run: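 Compounds are mixed with purified, untagged recombinant β-lactamase and held 15 min at 37 °C. Substrate is then added: nitrocefin (100 μM final) for OXA-1, imipenem for KPC-2, cefotaxime for SHV-5. Absorbance is followed immediately, and percent inhibition per concentration gives the IC50.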
# [11] = system: K. pneumoniae 156319 expressing KPC-3; experiment: Broth microdilution MIC, K. pneumoniae 156319 KPC-3; type: cell-based; conditions: fixed 4 μg/mL meropenem; CAMHB, 16-20 hours at 37° C.
# How it was run: as §1
Compound,"MIC of example compound in presence of fixed β-lactam: Fixed Mero, P. aerug. Ps296 VIM-2 [1]",IC50 [2],"MIC of example compound in presence of fixed β-lactam: Fixed CAZ, E. coli ESBL4 CTX-M-15 [3]",IC50 [4],"MIC of example compound in presence of fixed β-lactam: Fixed Mero, K. P. A-1797 KPC-2 VIM-4 [5]",IC50 [6],"MIC of example compound in presence of fixed β-lactam: Fixed CAZ, E. cl. 144200 p99 AmpC [7]",IC50 [8],"MIC of example compound in presence of fixed β-lactam: Fixed Pip, S. aureus MSSA-7 PC-1 [9]",IC50 [10],"MIC of example compound in presence of fixed β-lactam: Fixed Mero, K. P. 156319 KPC-3 [11]"
"O=C(CC1CCNCC1)N[C@H]1Cc2cccc(C(=O)O)c2OB1O [Example 32, 2-Hydroxy-3-(2-piperidin-4-yl-acetylamino)-3,4-dihydro-2H-benzo[e][1,2]oxaborinine-8-carboxylic acid]",A (an MIC of the fixed β-lactam antibiotic in the presence of >32 μg/mL of a β-lactamase inhibitor),10000 to 100000 nM,C (the MIC in the presence of <4 μg/mL of a β-lactamase inhibitor),100 to 1000 nM,A (an MIC of the fixed β-lactam antibiotic in the presence of >32 μg/mL of a β-lactamase inhibitor),10000 to 100000 nM,C (the MIC in the presence of <4 μg/mL of a β-lactamase inhibitor),< 100 nM,C (the MIC in the presence of <4 μg/mL of a β-lactamase inhibitor),100 to 1000 nM,A (an MIC of the fixed β-lactam antibiotic in the presence of >32 μg/mL of a β-lactamase inhibitor)
"N[C@H]1CCN(CC(=O)N[C@H]2Cc3cccc(C(=O)O)c3OB2O)C1 [Example 7, 3-[2-(S-3-Amino-pyrrolidin-1-yl)-acetylamino]-2-hydroxy-3,4-dihydro-2H-benzo[e][1,2]oxaborinine-8-carboxylic acid]",A (an MIC of the fixed β-lactam antibiotic in the presence of >32 μg/mL of a β-lactamase inhibitor),< 100 nM,C (the MIC in the presence of <4 μg/mL of a β-lactamase inhibitor),100 to 1000 nM,A (an MIC of the fixed β-lactam antibiotic in the presence of >32 μg/mL of a β-lactamase inhibitor),1000 to 10000 nM,C (the MIC in the presence of <4 μg/mL of a β-lactamase inhibitor),< 100 nM,C (the MIC in the presence of <4 μg/mL of a β-lactamase inhibitor),100 to 1000 nM,C (the MIC in the presence of <4 μg/mL of a β-lactamase inhibitor)
"N[C@H]1CCCN(CC(=O)N[C@H]2Cc3cccc(C(=O)O)c3OB2O)C1 [Example 11, 3-[2-(S-3-Amino-piperidin-1-yl)-acetylamino]-2-hydroxy-3,4-dihydro-2H-benzo[e][1,2]oxaborinine-8-carboxylic acid]",A (an MIC of the fixed β-lactam antibiotic in the presence of >32 μg/mL of a β-lactamase inhibitor),< 100 nM,C (the MIC in the presence of <4 μg/mL of a β-lactamase inhibitor),100 to 1000 nM,A (an MIC of the fixed β-lactam antibiotic in the presence of >32 μg/mL of a β-lactamase inhibitor),1000 to 10000 nM,C (the MIC in the presence of <4 μg/mL of a β-lactamase inhibitor),< 100 nM,A (an MIC of the fixed β-lactam antibiotic in the presence of >32 μg/mL of a β-lactamase inhibitor),100 to 1000 nM,C (the MIC in the presence of <4 μg/mL of a β-lactamase inhibitor)
"NCC(=O)N1CCN(CC(=O)N[C@H]2Cc3cccc(C(=O)O)c3OB2O)CC1 [Example 17, 3-{2-[4-(2-Amino-acetyl)-piperazin-1-yl]-acetylamino}-2-hydroxy-3,4-dihydro-2H-benzo[e][1,2]oxaborinine-8-carboxylic acid]",A (an MIC of the fixed β-lactam antibiotic in the presence of >32 μg/mL of a β-lactamase inhibitor),< 100 nM,B (the MIC in the presence of between 8 and 32 μg/mL of a β-lactamase inhibitor),100 to 1000 nM,A (an MIC of the fixed β-lactam antibiotic in the presence of >32 μg/mL of a β-lactamase inhibitor),1000 to 10000 nM,C (the MIC in the presence of <4 μg/mL of a β-lactamase inhibitor),< 100 nM,C (the MIC in the presence of <4 μg/mL of a β-lactamase inhibitor),< 100 nM,B (the MIC in the presence of between 8 and 32 μg/mL of a β-lactamase inhibitor)
"O=C(CN1CCN(c2nccs2)CC1)N[C@H]1Cc2cccc(C(=O)O)c2OB1O [Example 15, 2-Hydroxy-3-[2-(4-thiazol-2-yl-piperazin-1-yl)-acetylamino]-3,4-dihydro-2H-benzo[e][1,2]oxaborinine-8-carboxylic acid]",C (the MIC in the presence of <4 μg/mL of a β-lactamase inhibitor),100 to 1000 nM,C (the MIC in the presence of <4 μg/mL of a β-lactamase inhibitor),1000 to 10000 nM,B (the MIC in the presence of between 8 and 32 μg/mL of a β-lactamase inhibitor),1000 to 10000 nM,C (the MIC in the presence of <4 μg/mL of a β-lactamase inhibitor),< 100 nM,C (the MIC in the presence of <4 μg/mL of a β-lactamase inhibitor),100 to 1000 nM,C (the MIC in the presence of <4 μg/mL of a β-lactamase inhibitor)
"CN1CCC(CC(=O)N[C@H]2Cc3cccc(C(=O)O)c3OB2O)CC1 [Example 45, 2-Hydroxy-3-[2-(1-methyl-piperidin-4-yl)-acetylamino]-3,4-dihydro-2H-benzo[e][1,2]oxaborinine-8-carboxylic acid]",C (the MIC in the presence of <4 μg/mL of a β-lactamase inhibitor),< 100 nM,C (the MIC in the presence of <4 μg/mL of a β-lactamase inhibitor),< 100 nM,C (the MIC in the presence of <4 μg/mL of a β-lactamase inhibitor),100 to 1000 nM,C (the MIC in the presence of <4 μg/mL of a β-lactamase inhibitor),< 100 nM,B (the MIC in the presence of between 8 and 32 μg/mL of a β-lactamase inhibitor),100 to 1000 nM,C (the MIC in the presence of <4 μg/mL of a β-lactamase inhibitor)
"CN(CC(=O)N[C@H]1Cc2cccc(C(=O)O)c2OB1O)C1CCNCC1 [Example 43, 2-Hydroxy-3-[2-(methyl-piperidin-4-yl-amino)-acetylamino]-3,4-dihydro-2H-benzo[e][1,2]oxaborinine-8-carboxylic acid]",C (the MIC in the presence of <4 μg/mL of a β-lactamase inhibitor),< 100 nM,C (the MIC in the presence of <4 μg/mL of a β-lactamase inhibitor),< 100 nM,C (the MIC in the presence of <4 μg/mL of a β-lactamase inhibitor),100 to 1000 nM,C (the MIC in the presence of <4 μg/mL of a β-lactamase inhibitor),< 100 nM,C (the MIC in the presence of <4 μg/mL of a β-lactamase inhibitor),< 100 nM,C (the MIC in the presence of <4 μg/mL of a β-lactamase inhibitor)

# — US10294248B2, “Beta-lactamase inhibitors” (VenatoRx Pharmaceuticals, Inc., priority 2013, dated 2019)
